# Data reported in patent publication EP0073960A1, “2-Arylhydrazino-2-imidazolines, their acyl derivatives, process for their preparation and their use in the control of endoparasites and ectoparasites” (BAYER AG, priority 1981, dated 1983).
# Tested on: Boophilus microplus, Biarra-Stamm
# Experiment: In vitro tick test: inhibition of egg laying after dipping adult engorged female ticks
# Details: Rhipicephalus microplus, 480 h, resistant strain, ticks dipped for 1 minute, read after 20 days, read-out: 50 % Hemmung bei einer Wirkstoff-konzentration in ppm a.i.von
# Source text: Lösungsmittel: 35 Gewichtsteile Ethylenglykolmonomethylether 35 Gewichtsteile Nonylphenolpolyglykolether
# Zwecks Herstellung einer geeigneten Formulierung vermischt man drei Gewichtsteile Wirkstoff mit sieben Teilen des oben angegebenen Lösungsmittel-Emulgator-Gemisches und verdünnt das so erhaltene Emulsionskonzentrat mit Wasser auf die jeweils gewünschte Konzentration.
# In diese Wirkstoffzubereitungen werden adulte, vollgesogene Zeckenweibchen der Art Boophilus microplus (resistent) eine Minute lang getaucht. Nach dem Tauchen von je 10 weiblichen Exemplaren überführt man diese in Petrischalen, deren Boden mit einer entsprechend großen Filterscheibe belegt ist.
# Nach 20 Tagen wird die Wirksamkeit der Wirkstoffzubereitung bestimmt durch Ermittlung der Hemmung der Eiablage gegenüber unbehandelten Kontrollzecken. Die Wirkung drückt man in Prozent aus, wobei 100 % bedeutet, daß keine Eier mehr abgelegt wurden und 0 % besagt, daß die Zecken Eier in normaler Menge ablegten.
# Untersuchter Wirkstoff, geprüfte Konzentration, getestete Parasiten und erhaltene Befunde gehen aus der folgenden Tabelle 1 hervor.
smiles,measurement,value
Cc1cc(Cl)ccc1NC(=S)N(C)C [Chloromethiuron],IC50,> 5000 µg/mL
